Laboratory results published in DBAASP.
In brackets after ≈: the same amount, converted by molar mass. Several values for one entry are separate records, joined by “and”; a condition that tells them apart may be missing. Equal values may be shown once. One block for each molecule: values may come before it.

Assays:
Assay in all cases: ≥ marks a high value that may be exact or a test limit, other limits are often not marked, values filed in µg/mL are converted to µM
Enterococcus faecalis VR = test system: Enterococcus faecalis VR
Staphylococcus aureus MR = test system: Staphylococcus aureus MR
[1] = test system: Bacillus subtilis KCTC 3068
[2] = test system: Escherichia coli KCTC 1682
Enterococcus faecalis = test system: Enterococcus faecalis
[3] = test system: Staphylococcus epidermidis KCTC 1917
[4] = test system: Staphylococcus aureus KCTC 1621
Enterococcus faecium = test system: Enterococcus faecium
[5] = test system: Pseudomonas aeruginosa KCTC 1637
[6] = test system: Salmonella typhimurium KCTC 1926
Enterococcus faecium VR = test system: Enterococcus faecium VR
[7] = test system: Pseudomonas aeruginosa ATCC 15442
[8] = test system: Escherichia coli ATCC 25922
[9] = test system: Acinetobacter baumannii ATCC 15308
Streptococcus pneumoniae = test system: Streptococcus pneumoniae
Klebsiella pneumoniae = test system: Klebsiella pneumoniae
[10] = test system: Staphylococcus aureus ATCC 25923
Staphylococcus aureus = test system: Staphylococcus aureus
Enterobacter cloacae = test system: Enterobacter cloacae
Citrobacter sp. = test system: Citrobacter sp.
[11] = test system: Listeria monocytogenes KCTC 3710
[12] = test system: Pseudomonas aeruginosa 3592
[13] = test system: Pseudomonas aeruginosa 5018
[14] = test system: Staphylococcus aureus CCARM 3709
[15] = test system: Staphylococcus aureus CCARM 3114
[16] = test system: Salmonella typhimurium CCARM 8009
[17] = test system: Pseudomonas aeruginosa ATCC 27853
[18] = test system: Salmonella typhimurium CCARM 8013
[19] = test system: Escherichia coli CCARM 1229
[20] = test system: Candida albicans ATCC 10231
Candida albicans = test system: Candida albicans
[21] = test system: Escherichia coli BL21(DE3)
[22] = test system: Escherichia coli BL21 (DE3)-NDM-1
[23] = test system: Staphylococcus epidermidis
Escherichia coli = test system: Escherichia coli
Pseudomonas aeruginosa = test system: Pseudomonas aeruginosa
Micrococcus luteus A270 = test system: Micrococcus luteus A270
Escherichia coli SBS 363 = test system: Escherichia coli SBS 363
Candida albicans MDM8 = test system: Candida albicans MDM8
[24] = test system: Salmonella enterica subsp. arizonae ATCC 13314
[25] = test system: Pseudomonas aeruginosa 1109
[26] = test system: Acinetobacter baumannii ATCC BAA-1605
[27] = test system: Pseudomonas aeruginosa 1125
[28] = test system: Pseudomonas aeruginosa ATCC 9027
[29] = test system: Pseudomonas aeruginosa ATCC 35032
[30] = test system: Acinetobacter baumannii ATCC 19606
[31] = test system: Pseudomonas aeruginosa ATCC 25619
[32] = test system: Pseudomonas aeruginosa ATCC 10145
[33] = test system: Acinetobacter baumannii ATCC BAA-747
[34] = test system: Acinetobacter baumannii NR-9667
[35] = test system: Pseudomonas aeruginosa ATCC BAA-1744
[36] = test system: Pseudomonas aeruginosa ATCC 9721
[37] = test system: Acinetobacter baumannii NR-13375

MIC (Enterococcus faecalis VR): 30 µM (≈ 33.4 µg/mL)
MIC (Staphylococcus aureus MR): 30 µM (≈ 33.4 µg/mL)
MIC [1]: 15 µM (≈ 16.7 µg/mL)
MIC [2]: 30 µM (≈ 33.4 µg/mL)
MIC (Enterococcus faecalis): 30 µM (≈ 33.4 µg/mL)
MIC [3]: 15 µM (≈ 16.7 µg/mL)
MIC [4]: 30 µM (≈ 33.4 µg/mL)
MIC (Enterococcus faecium): 30 µM (≈ 33.4 µg/mL)
MIC [5]: 15 µM (≈ 16.7 µg/mL)
MIC [6]: 30 µM (≈ 33.4 µg/mL)
MIC (Enterococcus faecium VR): 30 µM (≈ 33.4 µg/mL)
Structure (SMILES): CC[C@H](C)[C@H](NC(=O)[C@H](CS)NC(=O)[C@H](Cc1cnc[nH]1)NC(=O)[C@H](C)NC(=O)[C@H](C)N)C(=O)N[C@H](C(=O)N[C@@H](CC(C)C)C(=O)N[C@@H](Cc1cnc[nH]1)C(=O)N[C@@H](Cc1cnc[nH]1)C(=O)N[C@@H](CC(N)=O)C(N)=O)C(C)C [AAHCIVLHHN]

MIC [7]: ≥ 116 µM
MIC [8]: 116 µM (≈ 250 µg/mL)
MIC [9]: ≥ 116 µM
MIC (Streptococcus pneumoniae): ≥ 116 µM
MIC (Klebsiella pneumoniae): > 116 µM
MIC [10]: 57.8 µM (≈ 125 µg/mL)
MIC (Staphylococcus aureus): 116 µM (≈ 250 µg/mL)
MIC (Enterobacter cloacae): ≥ 116 µM
MIC (Citrobacter sp.): ≥ 116 µM
Structure (SMILES): CC[C@H](C)[C@H](NC(=O)[C@H](CCSC)NC(=O)[C@H](C)NC(=O)[C@@H]1CCCN1C(=O)[C@@H](NC(=O)[C@@H](NC(=O)[C@H](CCCCN)NC(=O)[C@@H](NC(=O)[C@H](CC(C)C)NC(=O)CNC(=O)CNC(=O)[C@H](CC(C)C)NC(=O)[C@@H](N)Cc1ccccc1)[C@@H](C)CC)[C@@H](C)CC)C(C)C)C(=O)N[C@H]1CSSC[C@@H](C(=O)O)NC(=O)[C@H](CCCCN)NC(=O)[C@H](CCCCN)NC(=O)[C@H](CCCN=C(N)N)NC(=O)[C@H](C(C)C)NC(=O)[C@H](C)NC1=O [FLGGLIKIVPAMICAVRKKC]

MIC [8]: 2 µM (≈ 3.58 µg/mL)
MIC [11]: 4 µM (≈ 7.16 µg/mL)
MIC [12]: 8 µM (≈ 14.3 µg/mL)
MIC [13]: 8 µM (≈ 14.3 µg/mL)
MIC [14]: 2 µM and 4 µM
MIC [15]: 8 µM and 16 µM
MIC [10]: 1 µM (≈ 1.79 µg/mL)
MIC [16]: 4 µM (≈ 7.16 µg/mL)
MIC [17]: 4 µM (≈ 7.16 µg/mL)
MIC [18]: 4 µM and 8 µM
MIC [6]: 2 µM (≈ 3.58 µg/mL)
MIC [19]: 1 µM and 2 µM
Structure (SMILES): CC[C@H](C)[C@H](NC(=O)[C@H](Cc1c[nH]c2ccccc12)NC(=O)[C@H](CCCN=C(N)N)NC(=O)[C@@H](NC(=O)[C@@H](N)CCCN=C(N)N)[C@@H](C)CC)C(=O)N[C@@H](CC(C)C)C(=O)N[C@@H](CCCN=C(N)N)C(=O)N[C@@H](Cc1ccc(O)cc1)C(=O)N[C@@H](Cc1c[nH]c2ccccc12)C(=O)N[C@@H](CCCN=C(N)N)C(=O)N[C@@H](Cc1c[nH]c2ccccc12)C(=O)N[C@@H](CO)C(=O)O [RIRWILRYWRWS]

MIC [20]: 35.2 µM (≈ 64 µg/mL)
MIC (Candida albicans): 35.2 µM (≈ 64 µg/mL)
MIC [21]: 8.79 µM (≈ 16 µg/mL)
MIC [8]: 17.6 µM (≈ 32 µg/mL)
MIC [22]: 4.4 µM (≈ 8 µg/mL)
MIC [23]: 17.6 µM (≈ 32 µg/mL)
MIC (Escherichia coli): 17.6 µM (≈ 32 µg/mL)
MIC (Klebsiella pneumoniae): 17.6 µM (≈ 32 µg/mL)
MIC (Pseudomonas aeruginosa): 17.6 µM (≈ 32 µg/mL)
MIC [10]: 35.2 µM (≈ 64 µg/mL)
MIC [17]: 8.79 µM (≈ 16 µg/mL)
MIC (Staphylococcus aureus): 17.6 µM (≈ 32 µg/mL)
Structure (SMILES): CC(C)C[C@H](NC(=O)[C@H](CCCCN)NC(=O)[C@H](CCCN=C(N)N)NC(=O)[C@H](Cc1ccccc1)NC(=O)[C@H](Cc1ccccc1)NC(=O)[C@H](CCCCN)NC(=O)[C@H](CCCN=C(N)N)NC(=O)[C@H](CC(C)C)NC(=O)[C@H](CC(C)C)NC(=O)[C@@H](N)CCCN=C(N)N)C(=O)N[C@@H](CCCCN)C(=O)N[C@@H](CCCCN)C(=O)N[C@@H](CO)C(=O)N[C@H](C(=O)O)C(C)C [RLLRKFFRKLKKSV]

MIC (Micrococcus luteus A270): 12.5 µM (≈ 15.5 µg/mL)
MIC (Escherichia coli SBS 363): 12.5 µM (≈ 15.5 µg/mL)
MIC (Candida albicans MDM8): 12.5 µM (≈ 15.5 µg/mL)
MIC [24]: ≥ 50 µM
MIC [17]: 1.6 µM (≈ 1.98 µg/mL)
Structure (SMILES): CC[C@H](C)[C@H](NC(=O)[C@H](CC(C)C)NC(=O)[C@H](CO)NC(=O)[C@H](CC(C)C)NC(=O)[C@H](CC(C)C)NC(=O)[C@@H](N)CO)C(=O)N[C@@H](CCCN=C(N)N)C(=O)N[C@@H](CC(C)C)C(=O)N[C@@H](CC(C)C)C(=O)N[C@H](C(=O)N[C@H](C(N)=O)[C@@H](C)O)[C@@H](C)CC [SLLSLIRLLIT]

MIC [7]: 16 µM (≈ 31.6 µg/mL)
MIC [25]: 16 µM (≈ 31.6 µg/mL)
MIC [26]: 4 µM (≈ 7.9 µg/mL)
MIC [27]: ≥ 32 µM
MIC [28]: 4 µM (≈ 7.9 µg/mL)
MIC [29]: 16 µM (≈ 31.6 µg/mL)
MIC [30]: 2 µM (≈ 3.95 µg/mL)
MIC [31]: 8 µM (≈ 15.8 µg/mL)
MIC [32]: 8 µM (≈ 15.8 µg/mL)
MIC [33]: 4 µM (≈ 7.9 µg/mL)
MIC [34]: 4 µM (≈ 7.9 µg/mL)
MIC [17]: 8 µM (≈ 15.8 µg/mL)
MIC [35]: 16 µM (≈ 31.6 µg/mL)
MIC [36]: 8 µM (≈ 15.8 µg/mL)
MIC [37]: 2 µM (≈ 3.95 µg/mL)
Structure (SMILES): CC[C@H](C)[C@H](NC(=O)[C@H](Cc1c[nH]c2ccccc12)NC(=O)[C@H](CCCCN)NC(=O)[C@H](CCCCN)NC(=O)[C@@H](NC(=O)[C@H](CCCN=C(N)N)NC(=O)[C@H](CCCN=C(N)N)NC(=O)[C@@H](NC(=O)[C@@H](N)Cc1c[nH]c2ccccc12)[C@@H](C)CC)[C@@H](C)CC)C(=O)N[C@@H](CCCN=C(N)N)C(=O)N[C@@H](CCCN=C(N)N)C(=O)N[C@H](C(=O)N[C@@H](Cc1cnc[nH]1)C(=O)N[C@@H](CCCCN)C(=O)O)C(C)C [WIRRIKKWIRRVHK]
